Patent US6403626B1, “Benzimidazole derivatives” (Synaptic Pharmaceutical Corporation, priority 1994, dated 2002)
Where two headings read alike, the source gives them in different places.

Assays:
[1] = target: T1, α2B Human Adrenergic Receptor (Homo sapiens, UniProt P18089); assay: Equilibrium competition binding, [3H] rauwolscine, membranes of transfected Y-1 cells
T1 construct: expressed in transfected cells; host or cells: Y-1 cells
T1 sequence (P18089 1-450): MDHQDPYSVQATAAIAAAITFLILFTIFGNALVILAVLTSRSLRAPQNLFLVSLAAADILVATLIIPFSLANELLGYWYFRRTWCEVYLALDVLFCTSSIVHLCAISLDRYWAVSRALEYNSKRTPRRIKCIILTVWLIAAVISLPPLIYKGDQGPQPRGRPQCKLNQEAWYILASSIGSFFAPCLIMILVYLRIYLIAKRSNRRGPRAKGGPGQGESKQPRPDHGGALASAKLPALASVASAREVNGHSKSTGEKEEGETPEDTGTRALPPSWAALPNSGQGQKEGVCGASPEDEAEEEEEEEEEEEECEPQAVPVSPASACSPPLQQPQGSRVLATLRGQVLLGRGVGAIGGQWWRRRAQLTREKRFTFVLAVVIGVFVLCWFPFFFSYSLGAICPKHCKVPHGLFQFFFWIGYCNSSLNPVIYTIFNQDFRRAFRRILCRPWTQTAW
Description: (§1) Binding and functional assays were performed using stably transfected human alpha adrenergic receptors. Equilibrium competition binding assays were performed with membrane preparations from cultured LM(tk-) cells stably transfected with the cloned human adrenoceptor subtypes except for α2b, which was expressed in Y-1 cells, using [^3H] prazosin for α1 receptors and [^3H] rauwolscine for α2 receptors.
(§2) Stable cell lines were selected as described above.
(§3) Transfected cells from culture flasks were scraped into 5 ml of 5 mM Tris-HCl, 5 mM EDTA, pH 7.5, and lysed by sonication. The cell lysates were centrifuged at 1000 rpm for 5 min at 4° C., and the supernatant was centrifuged at 30,000×g for 20 min at 4° C. The pellet was suspended in 50 mM Tris-HCl, 1 mM MgCl2, and 0.1% ascorbic acid at pH 7.5. Binding of α2 antagonist [^3H] rauwolscine ([…]) to membrane preparations of LM(tk-) cells was done in a final volume of 0.25 ml and incubated at 37° C. for 20 min. Nonspecific binding was determined in the presence of 10 μM phentolamine. The reaction was stopped by filtration through GF/B filters using a cell harvester.

[2] = target: T2, α1A Human Adrenergic Receptor (Homo sapiens, UniProt P25100); assay: Equilibrium competition binding, [3H] prazosin, membranes of transfected LM(tk-) cells
T2 construct: expressed in transfected cells; host or cells: LM(tk-) cells
T2 sequence (P25100 1-572): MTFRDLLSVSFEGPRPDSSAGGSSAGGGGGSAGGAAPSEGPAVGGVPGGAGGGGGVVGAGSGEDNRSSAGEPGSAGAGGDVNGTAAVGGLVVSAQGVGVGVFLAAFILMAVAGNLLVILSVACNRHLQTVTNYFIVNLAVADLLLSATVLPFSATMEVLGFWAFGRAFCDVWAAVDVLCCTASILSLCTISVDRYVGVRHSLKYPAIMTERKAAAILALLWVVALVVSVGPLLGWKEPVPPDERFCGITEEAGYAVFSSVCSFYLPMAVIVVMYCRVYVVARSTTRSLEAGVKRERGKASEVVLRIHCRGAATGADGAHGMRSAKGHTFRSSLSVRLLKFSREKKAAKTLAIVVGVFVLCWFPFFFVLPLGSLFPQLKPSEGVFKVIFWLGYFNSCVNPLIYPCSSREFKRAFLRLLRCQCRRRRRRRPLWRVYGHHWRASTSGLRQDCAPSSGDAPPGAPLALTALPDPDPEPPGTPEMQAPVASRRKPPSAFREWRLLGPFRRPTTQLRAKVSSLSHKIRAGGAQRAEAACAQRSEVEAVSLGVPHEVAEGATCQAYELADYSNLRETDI
Description: as §1, §3, §2

[3] = target: T3, α1B Human Adrenergic Receptor (Homo sapiens, UniProt P35368); assay: as above
T3 construct: The entire coding region of α1B(1563 bp); expressed in transfected cells; host or cells: LM(tk-) cells
T3 sequence (P35368 1-520): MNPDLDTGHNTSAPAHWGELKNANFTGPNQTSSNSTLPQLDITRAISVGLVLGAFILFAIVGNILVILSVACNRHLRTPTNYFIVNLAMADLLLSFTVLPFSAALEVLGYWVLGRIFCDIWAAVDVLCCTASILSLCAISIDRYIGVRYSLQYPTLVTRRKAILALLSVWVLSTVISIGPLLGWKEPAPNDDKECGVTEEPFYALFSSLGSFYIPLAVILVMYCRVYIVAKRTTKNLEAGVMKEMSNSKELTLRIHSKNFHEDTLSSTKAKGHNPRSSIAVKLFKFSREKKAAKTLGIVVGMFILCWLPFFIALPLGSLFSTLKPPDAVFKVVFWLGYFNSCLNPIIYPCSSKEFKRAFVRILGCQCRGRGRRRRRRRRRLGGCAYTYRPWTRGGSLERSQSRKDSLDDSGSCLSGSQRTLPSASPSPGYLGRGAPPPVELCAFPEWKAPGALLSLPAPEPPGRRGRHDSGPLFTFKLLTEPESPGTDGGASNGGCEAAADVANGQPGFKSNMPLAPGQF
Description: as §1, §3
The construct involved ligating the full-length containing EcoRI brainstem cDNA fragment from ZapII into the expression vector. The stable cell lines were selected as described above.

[4] = target: T4, α1C Human Adrenergic Receptor (Homo sapiens, UniProt P35348); assay: as above; conditions: cloned human receptor, [3H] prazosin; for Ki: read-out: pKi Alpha-1 C (converted)
T4 construct: expressed in transfected cells; host or cells: LM(tk-) cells
T4 sequence (P35348 1-466): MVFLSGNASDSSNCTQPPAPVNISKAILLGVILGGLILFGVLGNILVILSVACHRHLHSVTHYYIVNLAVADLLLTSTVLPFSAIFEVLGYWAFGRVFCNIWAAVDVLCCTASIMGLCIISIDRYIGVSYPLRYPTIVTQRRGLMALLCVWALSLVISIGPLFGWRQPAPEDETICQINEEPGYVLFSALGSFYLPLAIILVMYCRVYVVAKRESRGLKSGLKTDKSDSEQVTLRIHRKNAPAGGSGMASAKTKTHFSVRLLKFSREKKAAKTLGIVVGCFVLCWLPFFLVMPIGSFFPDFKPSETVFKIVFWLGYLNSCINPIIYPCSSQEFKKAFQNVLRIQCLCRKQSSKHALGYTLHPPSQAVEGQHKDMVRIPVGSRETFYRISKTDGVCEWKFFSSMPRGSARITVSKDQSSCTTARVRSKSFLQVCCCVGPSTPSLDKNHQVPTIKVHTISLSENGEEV
Description: as §1, §3
The construct involved ligation three partial overlapping fragments: a 5′ 0.6 kb HincII genomic clone, a central 1.8 EcoRI hippocampal cDNA clone, and a 3′ 0.6 Kb PstI genomic clone. The hippocampal cDNA fragment overlaps with the 5′ and 3′ genomic clones so that the HincII and PstI sites at the 5 and 3′ ends of the cDNA clone, respectively, were utilized for ligation. This full-length clone was cloned into the KpnI site of the expression vector, using the 5′ and 3′ KpnI sites of the fragment, derived from vector (i.e., pBluescript) and 3′-untranslated sequences, respectively. Stable cell lines were selected as described above.

[5] = target: T5, α2C Human Adrenergic Receptor (Homo sapiens, UniProt P18825); assay: Equilibrium competition binding, [3H] rauwolscine, membranes of transfected LM(tk-) cells
T5 sequence (P18825 1-462): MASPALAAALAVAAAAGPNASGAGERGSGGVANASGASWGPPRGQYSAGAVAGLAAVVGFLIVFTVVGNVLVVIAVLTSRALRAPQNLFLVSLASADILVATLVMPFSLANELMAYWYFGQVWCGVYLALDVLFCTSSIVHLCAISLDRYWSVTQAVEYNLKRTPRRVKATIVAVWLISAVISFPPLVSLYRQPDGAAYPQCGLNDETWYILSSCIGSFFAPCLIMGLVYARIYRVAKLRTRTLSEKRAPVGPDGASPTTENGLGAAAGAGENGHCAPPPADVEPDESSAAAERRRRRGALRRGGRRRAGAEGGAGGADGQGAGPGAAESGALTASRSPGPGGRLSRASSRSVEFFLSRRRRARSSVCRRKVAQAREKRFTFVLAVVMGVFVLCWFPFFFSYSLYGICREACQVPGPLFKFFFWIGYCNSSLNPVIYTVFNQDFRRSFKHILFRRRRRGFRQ

[6] = target: T1, α2B Human Adrenergic Receptor; type: cell-based
Description: as §1, §2
(§4) The agonist activity (expressed as pEC50) was measured as a function of the ability to inhibit the forskolin-stimulated synthesis of cyclic adenosine monophosphate (cAMP). The stably transfected cells were incubated in Ham's F10 with 5 mM theophylline, 10 mM HEPES, 10 μM pargyline, and/or appropriate concentrations of forskolin for 20 min at 37° C. in 5% CO2. The tested compounds were then added to a final concentration of 0.001 nM to 1 μM and incubated for an additional 15 min at 37° C. in 5% CO2. The medium was aspirated and the reaction was stopped by the addition of 100 mM HCl . […] The plates are stored at 4° C. for 15 min and assayed to determine the linear concentration of cAMP. The appropriate dilution is interpolated from the standard curve of cold cAMP. The assessment of cAMP formation is determined by radioimmunoassay (cAMP radioimmunoassay kit; Advanced Magnetics, Cambridge, Mass.). Radioactivity was quantified using a Packard COBRA Auto Gamma counter, equipped with data reduction software.

[7] = target: T5, α2C Human Adrenergic Receptor; type: cell-based; design: The entire coding region of α2C (1383 bp), including 2 bp of 5′ UT and 400 bp of 3′ UT; expressed in transfected cells; host or cells: LM(tk-) cells; conditions: for I.A Alpha-2 C: functional cAMP assay
Description: as §1
The insert housing this coding region was an @ 1.8 kb Ncol/EcoRI human spleen genomic fragment which was end-blunted by either T4 polymerase or Klenow fragment of DNA polymerase. Stable cell lines were selected as described above.
as §4

[8] = cloned human receptor, [3H] prazosin, read-out: pKi Alpha-1 B (converted)
[9] = cloned human receptor, [3H] rauwolscine
[10] = cloned human receptor, [3H] prazosin
[11] = cloned human receptor, [3H] rauwolscine, read-out: pKi Alpha-2 B (converted)

| Compound | Ki [1] | Ki [2] | Ki [3, 8] | Ki [4] | Ki [5] | Ki [1, 11] | further results |
| --- | --- | --- | --- | --- | --- | --- | --- |
| Cn1cnc2ccc(NC3=NCCN3)cc21 [Example 11, 3-Methyl-5-(2-imidazolin-2-ylamino)Benzimidazole] | 224 nM | 10 µM | 35.5 µM | 5.75 µM | 1120 nM |  |  |
| CCCn1cnc2c(Br)c(NC3=NCCN3)ccc21 [Example 14, 1-Propyl-4-bromo-5-(imidazolin-2-ylamino)Benzimidazole] |  |  |  |  |  |  | pKi Alpha-2 B [1, 9]: 6.66; pKi Alpha-1 A [2, 10]: 5.63; pKi Alpha-1 B [3, 10]: 4.69; pKi Alpha-1 C [4]: 6.21; pKi Alpha-2 C [5, 9]: 6.64 |
| CCCn1cnc2ccc(NC3=NCCN3)cc21 [Example 15, 3-Propyl-5-(2-imidazolin-2-ylamino)Benzimidazole] |  | 6.46 µM | 34.7 µM | 4.9 µM | 871 nM | 724 nM |  |
| CCCn1cnc2ccc(NC3=NCCN3)c(Br)c21 [Example 16, 3-Propyl-4-bromo-5-(2-imidazolin-2-ylamino)Benzimidazole] |  | 0.055 µM | 0.513 µM | 0.417 µM |  | 12.3 nM |  |
| CC(C)n1cnc2cc(NC3=NCCN3)ccc21 [Example 17, 1-Isopropyl-5-(2-imidazolin-2-ylamino)Benzimidazole] | 661 nM | 10.5 µM |  | 9.12 µM | 832 nM |  | Ki [3]: 44.7 µM |
| CC(C)n1cnc2c(Br)c(NC3=NCCN3)ccc21 [Example 18, 1-Isopropyl-4-bromo-5-(2-imidazolin-2-ylamino)Benzimidazole] | 372 nM | 2.69 µM | 20 µM | 0.891 µM | 282 nM |  |  |
| CC(C)n1cnc2ccc(NC3=NCCN3)cc21 [Example 20, 3-Isopropyl-5-(2-imidazolin-2-ylamino)Benzimidazole] |  | 14.8 µM | 58.9 µM | 11.2 µM | 631 nM | 724 nM |  |
| CC(C)n1cnc2ccc(NC3=NCCN3)c(Br)c21 [Example 21, 3-Isopropyl-4-bromo-5-(2-imidazolin-2-ylamino)Benzimidazole] |  | 0.741 µM | 4.68 µM | 1.2 µM |  | 21.4 nM |  |
| CC(C)Cn1cnc2ccc(NC3=NCCN3)c(Br)c21 [Example 24, 3-Isobutyl-4-bromo-5-(2-imidazolin-2-ylamino)Benzimidazole] | 12.9 nM | 0.309 µM | 4.9 µM | 0.251 µM |  |  |  |
| Brc1cc(NC2=NCCN2)c(Br)c2[nH]cnc12 [Example 58, 4,7-Dibromo-5-(2-imidazolin-2-ylamino)Benzimidazole] | 174 nM |  |  |  | 30.9 nM |  | EC50 [6]: 28.2 nM; I.A Alpha-2 B [6]: 0.50; melting point: 320 to 321 °C; EC50 [7]: 3.24 nM; I.A Alpha-2 C [7]: 1.00 |
| Cc1cc(NC2=NCCN2)c(Br)c2[nH]cnc12 [Example 59, 4-Bromo-7-methyl-5-(2-imidazolin-2-ylamino)Benzimidazole] | 7.94 nM |  |  |  | 16.6 nM |  | EC50 [6]: 40.7 nM; I.A Alpha-2 B [6]: 0.90; melting point: 242 to 244 °C; EC50 [7]: 1.29 nM; I.A Alpha-2 C [7]: 1.00 |
